Measurements: patent US20190224347A1, “Detection of Renal Amyloidosis by Imaging with Stilbene or Phenylbenzothiazole Derivatives” (Mayo Foundation for Medical Education and Research, priority 2018, published 2019)

Target: T1, leucocyte cell-derived chemotaxin-2 (LECT2) amyloidosis (Homo sapiens, UniProt O14960)
T1 construct: biopsy-confirmed leucocyte cell-derived chemotaxin-2 (LECT2) amyloidosis underwent a positron emission tomography/computed tomography (PET/CT) scan with florbetapir; from tissue; host or cells: Living patient: amyloid deposits in lungs, spleen, adrenal glands, kidneys and bone marrow
T1 sequence (O14960 19-151): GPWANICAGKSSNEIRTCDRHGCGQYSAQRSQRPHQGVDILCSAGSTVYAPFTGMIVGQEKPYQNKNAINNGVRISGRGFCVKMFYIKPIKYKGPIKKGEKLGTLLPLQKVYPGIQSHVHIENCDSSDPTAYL
Assay: PET/CT scan with florbetapir 18F in a patient with biopsy-confirmed LECT2 amyloidosis
Type: in vivo
Experimental: Administration to the subject of a pharmaceutical composition including a radiolabeled stilbene derivative or phenylbenzothiazole derivative chosen from the compounds of Formulas (I) to (VII) above for in vivo detection of the accumulated compound in LECT2-based protein structures can be accomplished intravenously, intraarterially, intrathecally, intramuscularly, intradermally, subcutaneously, or intracavitary. Dosage can vary. In one non-limiting example, dosage may vary from 0.001 μg/kg to 10 μg/kg. In another non-limiting example, the dose for florbetapir may be 370 MBq (10 mCi), maximum 50 μg mass dose, administered as a single intravenous bolus in a total volume of 10 mL or less. The injection may be followed with an intravenous flush of 0.9% sterile sodium chloride. In the method of the invention, sufficient time is allowed after administration such that the radiolabeled stilbene derivative or phenylbenzothiazole derivative can accumulate in any LECT2-based protein structures.
A person with end stage renal disease on haemodialysis secondary to biopsy-confirmed leucocyte cell-derived chemotaxin-2 (LECT2) amyloidosis underwent a positron emission tomography/computed tomography (PET/CT) scan with florbetapir ^18F. […] These organs normally have low activity on florbetapir PET/CT. The activity pattern is consistent with pathological data on the distribution of amyloidosis in this disease. […] A remarkable finding in this patient is the uptake in the kidney because they make little urine and is on chronic haemodialysis.

CNc1ccc(/C=C/c2ccc(OCCOCCOCC[18F])nc2)cc1 [florbetapir ^18F]
PET/CT activity in bone marrow (PET/CT, same patient, bone marrow): diffuse intense activity above normal background
PET/CT activity in the heart (PET/CT, same patient, heart): normal background activity
accumulation in LECT2-based protein structures (positron emission tomography): accumulates within LECT2-based protein structures
